Experimental data: PubChem BioAssay (NCI)
Where “and” joins values, the source holds several entries; their conditions need not be identical. Equal entries are not always repeated.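 Grown in 96-well plates, cells were treated for 48 hours with each compound at five concentrations. Insufficient inhibition: endpoint recorded as highest concentration tested. GI50 marks 50% less growth. TGI is the concentration that stops growth completely.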

Experiments:
Test in all cases: NCI-60 cell line screen, 48 h
SK-MEL-5 melanoma = test system: SK-MEL-5 melanoma
ACHN renal = test system: ACHN renal
RXF 393 renal = test system: RXF 393 renal
MOLT-4 leukemia = test system: MOLT-4 leukemia
TK-10 renal = test system: TK-10 renal
HL-60(TB) leukemia = test system: HL-60(TB) leukemia
PC-3 prostate = test system: PC-3 prostate
SNB-19 CNS = test system: SNB-19 CNS
M14 melanoma = test system: M14 melanoma
CCRF-CEM leukemia = test system: CCRF-CEM leukemia

With `NNc1c(C(N)=O)c2c(N)ncnc2n1C1OC(CO)C(O)C1O` (stereo not given) the GI50 (SK-MEL-5 melanoma) was 60.1 nM and 82.8 nM, the TGI (SK-MEL-5 melanoma) was 194 nM and 275 nM and the GI50 (ACHN renal) was 16.7 nM. For the same compound, the TGI (ACHN renal) was 101 nM and 499 nM, the GI50 (RXF 393 renal) was 25.4 nM and < 14.3 nM and the TGI (RXF 393 renal) was 186 nM and 125 nM. For the same compound, the GI50 (MOLT-4 leukemia) was 23.2 nM and 96.4 nM, the TGI (MOLT-4 leukemia) was 103 nM and 495 nM and the GI50 (TK-10 renal) was 24.3 nM and 43.4 nM. For the same compound, the TGI (TK-10 renal) was 1140 nM and 1490 nM, the GI50 (HL-60(TB) leukemia) was 66.5 nM and < 11.8 nM and the TGI (HL-60(TB) leukemia) was 785 nM and 125 nM. For the same compound, the GI50 (PC-3 prostate) was 22.4 nM and 46.4 nM, the TGI (PC-3 prostate) was 220 nM and 304 nM and the GI50 (SNB-19 CNS) was 187 nM. The TGI (SNB-19 CNS) was 8540 nM and 18200 nM, the GI50 (M14 melanoma) was < 12.7 nM and 18.8 nM and the TGI (M14 melanoma) was 49.8 nM and 162 nM. For the same compound, the GI50 (CCRF-CEM leukemia) was less than 14.6 nM and the TGI (CCRF-CEM leukemia) was < 48.3 nM and 120 nM.
`COc1ccc(-c2nsc3c2NC(=O)CC3c2ccsc2)cc1` (stereo not given) gave a GI50 (SK-MEL-5 melanoma) of 99.2 nM, a TGI (SK-MEL-5 melanoma) of 2760 nM and a GI50 (ACHN renal) of 1060 nM. For the same compound, the TGI (ACHN renal) was greater than 100000 nM, the GI50 (RXF 393 renal) was 367 nM and the TGI (RXF 393 renal) was greater than 100000 nM. The GI50 (MOLT-4 leukemia) was 514 nM, the TGI (MOLT-4 leukemia) was 24100 nM and the GI50 (TK-10 renal) was 13800 nM. For the same compound, the TGI (TK-10 renal) was greater than 100000 nM, the GI50 (HL-60(TB) leukemia) was 143 nM and the TGI (HL-60(TB) leukemia) was 20600 nM. For the same compound, the GI50 (PC-3 prostate) was 334 nM, the TGI (PC-3 prostate) was greater than 100000 nM and the GI50 (SNB-19 CNS) was 1050 nM. It also gave a TGI (SNB-19 CNS) greater than 100000 nM, a GI50 (M14 melanoma) of 167 nM and a TGI (M14 melanoma) of 23600 nM. It also gave a GI50 (CCRF-CEM leukemia) of 268 nM and a TGI (CCRF-CEM leukemia) greater than 100000 nM.
`CC(C)(Oc1ccc(-c2cccc3ccccc23)cc1)C(=O)O` was tested, and the TGI (SK-MEL-5 melanoma) was greater than 100000 nM, the TGI (ACHN renal) was greater than 100000 nM and the TGI (RXF 393 renal) was greater than 100000 nM. For the same compound, the TGI (MOLT-4 leukemia) was greater than 100000 nM, the TGI (TK-10 renal) was greater than 100000 nM and the TGI (HL-60(TB) leukemia) was 30100 nM. It also gave a TGI (PC-3 prostate) greater than 100000 nM, a TGI (SNB-19 CNS) greater than 100000 nM and a TGI (M14 melanoma) greater than 100000 nM. For the same compound, the TGI (CCRF-CEM leukemia) was greater than 100000 nM.
`CCN(CC)CCOC(COc1cc(C)cc(C)c1)COc1cc(C)cc(C)c1` gave a GI50 (SK-MEL-5 melanoma) of 1750 nM, a TGI (SK-MEL-5 melanoma) of 3190 nM and a GI50 (ACHN renal) of 3600 nM. For the same compound, the TGI (ACHN renal) was 13800 nM, the GI50 (RXF 393 renal) was 2060 nM and the TGI (RXF 393 renal) was 5070 nM. The GI50 (MOLT-4 leukemia) was 2080 nM, the TGI (MOLT-4 leukemia) was 5730 nM and the GI50 (TK-10 renal) was 3450 nM. For the same compound, the TGI (TK-10 renal) was 14500 nM, the GI50 (HL-60(TB) leukemia) was 1940 nM and the TGI (HL-60(TB) leukemia) was 4480 nM. It also gave a GI50 (PC-3 prostate) of 2600 nM, a TGI (PC-3 prostate) of 10100 nM and a GI50 (SNB-19 CNS) of 2300 nM. For the same compound, the TGI (SNB-19 CNS) was 7360 nM, the GI50 (M14 melanoma) was 1350 nM and the TGI (M14 melanoma) was 3060 nM. It also gave a GI50 (CCRF-CEM leukemia) of 2250 nM and a TGI (CCRF-CEM leukemia) of 8240 nM.
In the case of `CCn1c(-c2nonc2N)nc2ccccc21`, the GI50 (SK-MEL-5 melanoma) is reported as greater than 25000 nM, the TGI (SK-MEL-5 melanoma) is reported as greater than 25000 nM and the GI50 (ACHN renal) is reported as greater than 25000 nM. It also gave a TGI (ACHN renal) greater than 25000 nM, a GI50 (RXF 393 renal) of 16700 nM and a TGI (RXF 393 renal) greater than 25000 nM. The GI50 (MOLT-4 leukemia) was greater than 25000 nM, the TGI (MOLT-4 leukemia) was greater than 25000 nM and the GI50 (TK-10 renal) was 7320 nM. For the same compound, the TGI (TK-10 renal) was greater than 25000 nM, the GI50 (HL-60(TB) leukemia) was greater than 25000 nM and the TGI (HL-60(TB) leukemia) was greater than 25000 nM. For the same compound, the GI50 (PC-3 prostate) was greater than 25000 nM, the TGI (PC-3 prostate) was greater than 25000 nM and the GI50 (SNB-19 CNS) was greater than 25000 nM. For the same compound, the TGI (SNB-19 CNS) was greater than 25000 nM, the GI50 (M14 melanoma) was greater than 25000 nM and the TGI (M14 melanoma) was greater than 25000 nM. For the same compound, the GI50 (CCRF-CEM leukemia) was greater than 25000 nM and the TGI (CCRF-CEM leukemia) was greater than 25000 nM.
